# Assay results taken from ChEMBL document CHEMBL1201862, “PubChem BioAssay data set” (2004).
# Activity calls are given as the source filed them.
# Assays:
# [1] = CMV-driven luciferase expression suppression in HEK293 – cell-based, luminescence, dry powder, counter-screen for Pax8 inhibitor project, dose response (AID 743020); format: functional
# Paired box protein Pax-8 = Paired box protein Pax-8 (Homo sapiens, UniProt Q06710); assay: PAX8 transcriptional activity inhibition in RMG-I – RMG-I cells, luciferase, cherry-pick, dose response (AID 687027); format: functional, cell-based;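 further: luciferase reporter driven by Pax8 target thyroperoxidase promoter measured by SteadyGlo luminescence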
# Chain of Paired box protein Pax-8 (Q06710 whole entry): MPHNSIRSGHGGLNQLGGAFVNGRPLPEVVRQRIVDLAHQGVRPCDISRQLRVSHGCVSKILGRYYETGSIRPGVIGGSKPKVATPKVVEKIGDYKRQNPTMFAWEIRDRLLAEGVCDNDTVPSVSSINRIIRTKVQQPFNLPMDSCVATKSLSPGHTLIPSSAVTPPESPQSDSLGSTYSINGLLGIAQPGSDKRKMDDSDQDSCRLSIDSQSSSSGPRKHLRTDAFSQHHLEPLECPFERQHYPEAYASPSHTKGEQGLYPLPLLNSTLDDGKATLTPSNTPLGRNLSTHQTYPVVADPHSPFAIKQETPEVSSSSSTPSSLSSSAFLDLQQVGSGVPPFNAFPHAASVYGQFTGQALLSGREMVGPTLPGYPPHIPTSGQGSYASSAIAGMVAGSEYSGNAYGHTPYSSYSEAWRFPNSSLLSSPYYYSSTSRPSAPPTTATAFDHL
# [2] = A549 cell cytotoxicity, dose response, cytotoxicity control, plate reader, cherry-pick, antagonist series (AID 743412); format: functional, cell-based
# [3] = inhibition of bursicon-driven LGR2 cAMP signaling – cell-based, HEK293, CRE-luciferase reporter, cherry pick, dose response (AID 743342); format: functional
# [4] = blockade of melanocortin 4 receptor signaling – cell-based, plate reader, cherry pick, counter-screen for LGR2 antagonist project, dose response (AID 743444); format: functional;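 further: transfected HEK 293 cells stimulated with alpha-MSH peptide; potency of inhibitors of the alpha-MSH evoked signal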
# [5] = viability loss in HEK293 cells – cell-based, plate reader, cherry-picked samples, cytotoxicity control, dose response (AID 743446); format: functional
# [6] = toxicity toward HepG2 liver cells – cell-based, plate reader, cherry-pick, antagonist series, cytotoxicity control, dose response (AID 743416); format: functional
# [7] = human cervical cancer cell viability loss – 24 h, plate reader, dry powder, cytotoxicity control, dose response (AID 686928); format: functional, cell-based; conditions: HeLa
# [8] = viability loss in THP-1 monocytes – THP-1 cells, cytotoxicity control for Vif-APOBEC3G degradation inhibitor project, dose response (AID 1117359); format: functional; conditions: THP-1
# [9] = Fluorescence-based cell-based high throughput dose response assay for inhibitors of the interaction of nucleotide-binding oligomerization domain containing 2 (NOD2) and the receptor-interacting serine-threonine kinase 2 (RIPK2).; format: functional; conditions: Homo sapiens
# [10] = viability loss in HEK293T cells – cell-based, cherry-picks, cytotoxicity control for HIV Vif inhibitor project, dose response (AID 652208); format: functional
# Fatty acid synthase = Fatty acid synthase (Homo sapiens, UniProt P49327); assay: inhibition of human FAS-TE enzyme activity – biochemical, endpoint fluorescence intensity, powder samples, SAR follow-up (AID 652164); format: functional
# Chain of Fatty acid synthase (P49327 whole entry, the tested form may be a part): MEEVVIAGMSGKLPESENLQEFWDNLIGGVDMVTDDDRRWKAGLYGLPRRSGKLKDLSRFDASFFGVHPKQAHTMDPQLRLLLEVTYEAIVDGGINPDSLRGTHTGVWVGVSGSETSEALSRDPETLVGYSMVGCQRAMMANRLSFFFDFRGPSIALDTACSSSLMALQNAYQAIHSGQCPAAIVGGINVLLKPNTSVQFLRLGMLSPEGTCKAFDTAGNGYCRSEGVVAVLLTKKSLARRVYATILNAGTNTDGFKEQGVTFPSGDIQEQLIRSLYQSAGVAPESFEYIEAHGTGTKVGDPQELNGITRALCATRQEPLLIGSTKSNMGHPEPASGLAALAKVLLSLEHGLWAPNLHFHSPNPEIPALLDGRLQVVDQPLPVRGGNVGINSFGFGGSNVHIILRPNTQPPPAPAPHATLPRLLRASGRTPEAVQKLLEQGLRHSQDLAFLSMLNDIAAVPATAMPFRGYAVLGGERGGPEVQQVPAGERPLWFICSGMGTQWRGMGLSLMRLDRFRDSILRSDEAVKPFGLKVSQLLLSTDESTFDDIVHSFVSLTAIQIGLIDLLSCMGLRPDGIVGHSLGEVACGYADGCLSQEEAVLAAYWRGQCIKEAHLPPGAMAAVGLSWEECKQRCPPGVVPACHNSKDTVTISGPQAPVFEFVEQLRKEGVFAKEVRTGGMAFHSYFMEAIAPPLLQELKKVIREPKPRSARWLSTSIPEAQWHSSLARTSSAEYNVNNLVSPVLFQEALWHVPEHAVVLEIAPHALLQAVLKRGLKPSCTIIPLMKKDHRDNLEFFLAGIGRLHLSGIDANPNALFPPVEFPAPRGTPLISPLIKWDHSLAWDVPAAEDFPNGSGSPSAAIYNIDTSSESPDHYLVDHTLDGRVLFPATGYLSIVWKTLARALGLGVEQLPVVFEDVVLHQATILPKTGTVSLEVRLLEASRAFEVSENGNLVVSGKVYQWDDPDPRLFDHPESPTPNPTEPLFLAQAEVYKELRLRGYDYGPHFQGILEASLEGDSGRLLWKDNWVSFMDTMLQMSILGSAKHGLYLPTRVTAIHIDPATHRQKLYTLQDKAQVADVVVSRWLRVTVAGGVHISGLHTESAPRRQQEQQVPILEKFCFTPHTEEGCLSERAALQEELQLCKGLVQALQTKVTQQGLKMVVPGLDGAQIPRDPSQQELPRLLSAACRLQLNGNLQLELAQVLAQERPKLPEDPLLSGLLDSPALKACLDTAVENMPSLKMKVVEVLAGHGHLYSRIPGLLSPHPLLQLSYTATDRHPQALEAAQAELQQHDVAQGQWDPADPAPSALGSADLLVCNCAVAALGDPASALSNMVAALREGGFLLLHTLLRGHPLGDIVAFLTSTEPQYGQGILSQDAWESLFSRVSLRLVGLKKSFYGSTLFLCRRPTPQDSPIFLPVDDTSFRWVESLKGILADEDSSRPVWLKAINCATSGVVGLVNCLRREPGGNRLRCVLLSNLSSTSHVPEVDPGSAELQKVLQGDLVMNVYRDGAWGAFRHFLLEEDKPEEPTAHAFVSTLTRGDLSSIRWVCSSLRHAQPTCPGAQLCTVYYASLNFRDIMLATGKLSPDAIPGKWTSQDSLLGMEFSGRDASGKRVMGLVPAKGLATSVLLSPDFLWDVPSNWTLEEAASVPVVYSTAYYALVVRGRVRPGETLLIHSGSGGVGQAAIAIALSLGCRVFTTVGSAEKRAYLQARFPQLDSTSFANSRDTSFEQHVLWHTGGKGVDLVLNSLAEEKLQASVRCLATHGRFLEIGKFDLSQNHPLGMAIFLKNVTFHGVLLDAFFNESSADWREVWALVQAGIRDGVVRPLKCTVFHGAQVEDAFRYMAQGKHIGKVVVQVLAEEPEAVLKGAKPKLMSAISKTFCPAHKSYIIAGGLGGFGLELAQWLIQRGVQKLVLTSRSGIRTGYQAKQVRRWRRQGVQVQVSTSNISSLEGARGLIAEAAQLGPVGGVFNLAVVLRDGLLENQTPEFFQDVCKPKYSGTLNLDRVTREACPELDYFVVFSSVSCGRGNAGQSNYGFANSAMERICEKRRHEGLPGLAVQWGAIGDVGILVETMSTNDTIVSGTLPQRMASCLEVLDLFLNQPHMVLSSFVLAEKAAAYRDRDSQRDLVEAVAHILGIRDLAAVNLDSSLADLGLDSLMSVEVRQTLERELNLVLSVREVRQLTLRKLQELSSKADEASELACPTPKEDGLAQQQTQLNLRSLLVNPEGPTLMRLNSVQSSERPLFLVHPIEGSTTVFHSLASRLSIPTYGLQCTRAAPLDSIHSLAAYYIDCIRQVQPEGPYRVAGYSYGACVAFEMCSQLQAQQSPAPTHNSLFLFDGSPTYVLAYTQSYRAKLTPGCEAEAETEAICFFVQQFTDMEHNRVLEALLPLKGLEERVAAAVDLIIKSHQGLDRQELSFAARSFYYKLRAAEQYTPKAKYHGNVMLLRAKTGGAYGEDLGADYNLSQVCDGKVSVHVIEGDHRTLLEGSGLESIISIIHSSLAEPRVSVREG
# [11] = target: Disintegrin and metalloproteinase domain-containing protein 17 (Homo sapiens, UniProt P78536); assay: exosite inhibitors of ADAM17, dose response, biochemical (AID 743260)
# Chain of Disintegrin and metalloproteinase domain-containing protein 17 (P78536 whole entry, the tested form may be a part): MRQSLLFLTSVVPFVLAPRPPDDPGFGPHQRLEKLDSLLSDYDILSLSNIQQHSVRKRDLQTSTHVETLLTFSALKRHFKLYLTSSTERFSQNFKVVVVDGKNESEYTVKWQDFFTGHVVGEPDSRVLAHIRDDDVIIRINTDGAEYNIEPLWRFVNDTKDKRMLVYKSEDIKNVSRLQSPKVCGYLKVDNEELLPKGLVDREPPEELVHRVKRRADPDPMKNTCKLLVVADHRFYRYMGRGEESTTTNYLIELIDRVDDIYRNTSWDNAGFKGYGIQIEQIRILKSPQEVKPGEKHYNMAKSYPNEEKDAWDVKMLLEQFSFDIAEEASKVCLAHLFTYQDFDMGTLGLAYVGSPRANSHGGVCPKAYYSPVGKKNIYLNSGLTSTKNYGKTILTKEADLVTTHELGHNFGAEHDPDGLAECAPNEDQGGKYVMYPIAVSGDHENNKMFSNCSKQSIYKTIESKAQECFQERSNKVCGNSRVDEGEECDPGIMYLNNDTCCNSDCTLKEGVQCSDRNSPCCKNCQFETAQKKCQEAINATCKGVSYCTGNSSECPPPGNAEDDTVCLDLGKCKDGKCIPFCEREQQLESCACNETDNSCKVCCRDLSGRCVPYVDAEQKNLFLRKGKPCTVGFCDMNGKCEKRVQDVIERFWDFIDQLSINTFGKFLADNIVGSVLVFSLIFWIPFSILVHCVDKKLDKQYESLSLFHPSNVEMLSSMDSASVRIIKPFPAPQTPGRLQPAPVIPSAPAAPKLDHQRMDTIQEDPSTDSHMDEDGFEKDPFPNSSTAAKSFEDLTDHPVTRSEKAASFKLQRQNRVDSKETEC
# BJ [12] = assay: cells; format: functional, cell-based; conditions: Homo sapiens
# BJ [13] = assay: BJ-TERT-LT-ST fibroblast viability loss – cell-based, RAS-independent, luminescence, dose response (AID 1935); format: functional; conditions: Homo sapiens;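 further: BJ fibroblasts immortalized with TERT plus LT and ST oncogenes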
# [14] = NIH-3T3 fibroblast cytotoxicity, dose response, cytotoxicity control, cell-based, fluorescence, Alamar Blue, secondary assay (AID 2327); format: functional;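 further: NIH-3T3 mouse fibroblasts cultured with fluconazole at 8 µg/mL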
# Nonstructural protein 1 = Nonstructural protein 1 (Influenza A virus, UniProt Q194T2); format: functional, Influenza A virus (A/California/07/2009(H1N1))
# Chain of Nonstructural protein 1 (Q194T2 whole entry): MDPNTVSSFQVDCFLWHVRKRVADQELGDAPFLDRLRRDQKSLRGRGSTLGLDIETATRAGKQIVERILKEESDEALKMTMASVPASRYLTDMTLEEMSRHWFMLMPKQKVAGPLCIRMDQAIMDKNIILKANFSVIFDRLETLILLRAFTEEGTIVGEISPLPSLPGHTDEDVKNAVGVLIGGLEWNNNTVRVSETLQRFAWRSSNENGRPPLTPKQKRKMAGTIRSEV
# [15] = viability loss in HeLa cells – cytotoxicity control for MgcRacGAP inhibitor project, dose response (AID 624300); format: functional
# [16] = fluconazole-exposed Candida albicans growth modulators – fluorescence, retest, confirmation (AID 2467); format: functional, cell-based
# [17] = target: T1, Rac GTPase-activating protein 1 (Homo sapiens, UniProt Q9H0H5); assay: blockers of MgcRacGAP-driven Rac1 GTP hydrolysis – biochemical, ADP Hunter fluorescence, primary and confirmatory, confirmation (AID 624330); format: functional
# T1 sequence (Q9H0H5 whole entry): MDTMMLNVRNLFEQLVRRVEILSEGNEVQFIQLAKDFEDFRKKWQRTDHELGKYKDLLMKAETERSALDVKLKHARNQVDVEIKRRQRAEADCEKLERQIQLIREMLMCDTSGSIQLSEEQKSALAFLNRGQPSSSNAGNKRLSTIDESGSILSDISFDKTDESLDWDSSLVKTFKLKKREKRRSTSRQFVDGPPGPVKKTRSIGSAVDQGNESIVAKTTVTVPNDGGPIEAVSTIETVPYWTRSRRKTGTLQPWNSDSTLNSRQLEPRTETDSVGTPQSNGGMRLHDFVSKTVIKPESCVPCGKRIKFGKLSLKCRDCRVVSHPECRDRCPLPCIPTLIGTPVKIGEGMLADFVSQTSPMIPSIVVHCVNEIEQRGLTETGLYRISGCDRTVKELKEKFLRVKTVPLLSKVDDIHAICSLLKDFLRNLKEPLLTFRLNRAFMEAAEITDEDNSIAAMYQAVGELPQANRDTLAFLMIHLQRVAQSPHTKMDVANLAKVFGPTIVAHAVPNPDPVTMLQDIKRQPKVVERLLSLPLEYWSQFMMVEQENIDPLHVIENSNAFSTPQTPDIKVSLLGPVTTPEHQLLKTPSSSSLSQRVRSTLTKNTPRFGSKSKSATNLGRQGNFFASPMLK
# BJ [18] = assay: BJ-TERT fibroblast viability loss – cell-based, RAS-independent, luminescence, dose response (AID 1933); format: functional; conditions: Homo sapiens
# [19] = DRD fibroblast viability loss – cell-based, non-viral oncogenic, luminescence, dose response (AID 1934); format: functional; conditions: Homo sapiens
# [20] = target: T2, Histone-lysine N-methyltransferase NSD2 (Homo sapiens, UniProt O96028); format: biochemical
# T2 sequence (O96028 whole entry): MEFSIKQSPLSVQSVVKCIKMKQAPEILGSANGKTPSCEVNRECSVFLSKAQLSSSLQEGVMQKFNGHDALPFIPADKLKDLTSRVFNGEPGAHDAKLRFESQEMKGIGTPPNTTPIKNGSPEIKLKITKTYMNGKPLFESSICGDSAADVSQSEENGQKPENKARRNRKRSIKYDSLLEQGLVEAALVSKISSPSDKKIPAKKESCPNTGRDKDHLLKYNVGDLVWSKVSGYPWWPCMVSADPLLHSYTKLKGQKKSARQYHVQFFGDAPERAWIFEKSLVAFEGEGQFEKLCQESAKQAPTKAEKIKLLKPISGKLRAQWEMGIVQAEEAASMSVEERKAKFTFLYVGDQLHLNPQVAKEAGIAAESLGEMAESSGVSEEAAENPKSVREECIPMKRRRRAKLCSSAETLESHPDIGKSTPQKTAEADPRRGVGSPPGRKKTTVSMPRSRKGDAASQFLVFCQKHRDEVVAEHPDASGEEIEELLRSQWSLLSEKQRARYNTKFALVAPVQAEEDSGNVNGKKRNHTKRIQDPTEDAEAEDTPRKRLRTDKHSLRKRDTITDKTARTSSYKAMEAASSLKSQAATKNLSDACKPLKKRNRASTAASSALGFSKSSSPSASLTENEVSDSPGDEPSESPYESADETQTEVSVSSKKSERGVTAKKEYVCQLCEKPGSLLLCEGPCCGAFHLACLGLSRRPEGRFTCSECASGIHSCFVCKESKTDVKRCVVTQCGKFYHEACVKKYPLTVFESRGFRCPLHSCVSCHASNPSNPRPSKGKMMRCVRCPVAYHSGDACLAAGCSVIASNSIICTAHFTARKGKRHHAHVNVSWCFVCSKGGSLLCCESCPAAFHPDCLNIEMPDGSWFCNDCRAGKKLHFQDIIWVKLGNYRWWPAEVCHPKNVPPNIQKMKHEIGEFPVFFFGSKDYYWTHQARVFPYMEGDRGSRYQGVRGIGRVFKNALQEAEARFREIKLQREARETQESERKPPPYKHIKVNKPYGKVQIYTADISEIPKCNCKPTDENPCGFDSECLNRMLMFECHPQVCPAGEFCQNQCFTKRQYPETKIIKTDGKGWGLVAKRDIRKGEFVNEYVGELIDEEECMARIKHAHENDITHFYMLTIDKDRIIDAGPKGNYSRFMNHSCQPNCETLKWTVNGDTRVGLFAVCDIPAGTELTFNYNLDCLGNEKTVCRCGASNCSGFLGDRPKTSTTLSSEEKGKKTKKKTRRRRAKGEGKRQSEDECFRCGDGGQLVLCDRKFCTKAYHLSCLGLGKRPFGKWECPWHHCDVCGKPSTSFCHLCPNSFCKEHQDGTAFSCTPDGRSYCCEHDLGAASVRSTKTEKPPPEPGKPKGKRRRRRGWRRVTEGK
# [21] = HGIII-sPLA2 enzyme inhibition potency – biochemical, QFRET, IC50, dose response (AID 743457);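 further: green fluorescence rise as the enzyme cleaves BODIPY PC-A2 in liposomes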
# Protein Wnt-3a = Protein Wnt-3a (Mus musculus, UniProt P27467); assay: SAR analysis of small molecule antagonists of Gli-SUFU in a Wnt3a luminescent reporter assay.; format: functional
# Chain of Protein Wnt-3a (P27467 whole entry): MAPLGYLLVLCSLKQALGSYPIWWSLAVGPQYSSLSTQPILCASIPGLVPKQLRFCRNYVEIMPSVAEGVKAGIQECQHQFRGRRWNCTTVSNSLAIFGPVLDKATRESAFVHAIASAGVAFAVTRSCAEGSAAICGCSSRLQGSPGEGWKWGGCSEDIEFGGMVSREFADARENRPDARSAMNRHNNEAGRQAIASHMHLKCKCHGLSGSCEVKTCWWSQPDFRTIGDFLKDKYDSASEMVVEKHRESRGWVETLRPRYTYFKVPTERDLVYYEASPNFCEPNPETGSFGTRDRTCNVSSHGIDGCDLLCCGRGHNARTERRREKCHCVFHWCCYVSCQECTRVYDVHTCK
# [22] = viability loss in HepG2 hepatoma cells – cell-based, cherry-picks, set 5, cytotoxicity control, dose response (AID 1053118); format: functional
# [23] = viability loss in HEK293 kidney cells – cell-based, cherry-picks, set 5, cytotoxicity control, dose response (AID 1053117); format: functional
# [24] = viability loss in A549 lung cancer cells – cell-based, cherry-picks, […], cytotoxicity control, dose response (AID 1053119); format: functional
# [25] = Cytotoxicity screening for potential Inhibitors of Bacterial Capsule Biogenesis (4).; format: functional
# [26] = MITF Orthogonal Assay: SK-MEL-5 CTG Assay Measured in Cell-Based System Using Plate Reader - 2084-02_Inhibitor_Dose_DryPowder_Activity_Set5.; format: functional
# [27] = MITF Measured in Cell-Based System Using Plate Reader - 2084-01_Inhibitor_Dose_DryPowder_Activity_Set7.; format: functional
# [28] = growth inhibition of SK-MEL-5 melanoma cells – cell-based, CellTiter-Glo luminescence, dry powder, set 8, orthogonal assay for MITF inhibitor project, dose response (AID 651586); format: functional
# [29] = cytotoxicity in MITF-independent A375 cells – cell-based, CellTiter-Glo luminescence, dry powder, set 4, counter-screen for MITF inhibitor project, dose response (AID 624364); format: functional; conditions: A-375;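 further: A375 melanoma cells are MITF independent so this is a counter screen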
# [30] = MITF Measured in Cell-Based System Using Plate Reader - 2084-01_Inhibitor_Dose_DryPowder_Activity_Set6.; format: functional
# [31] = cytotoxicity in melanoma parental cells – cell-based, CellTiter-Glo, dry powder, set 6, MITF inhibitor project, dose response (AID 624429); format: functional; conditions: SK-MEL-5
# [32] = growth inhibition of MALME3 cells – cell-based, CellTiter-Glo luminescence, dry powder, set 5, orthogonal assay for MITF inhibitor project, dose response (AID 651584); format: functional; conditions: MALME-3
# [33] = cytotoxicity in MITF-independent A375 cells – cell-based, CellTiter-Glo luminescence, dry powder, set 9, counter-screen for MITF modulator project, dose response (AID 651591); format: functional; conditions: A-375
# [34] = MITF Orthogonal Assay: MALME3 CTG Assay Measured in Cell-Based System Using Plate Reader - 2084-04_Inhibitor_Dose_DryPowder_Activity_Set6.; format: functional; conditions: MALME-3
# [35] = viability loss in MITF-independent A375 cells – cell-based, CellTiter-Glo luminescence, dry powder, set 6, counter-screen for MITF inhibitor project, dose response (AID 624488); format: functional; conditions: A-375
# [36] = viability loss in MITF-independent A375 cells – cell-based, CellTiter-Glo luminescence, dry powder, set 2, counter-screen for MITF inhibitor project, dose response (AID 624489); format: functional; conditions: A-375;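 further: actives are compounds lowering A375 viability meaning general cytotoxicity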
# [37] = inhibitors of TRPM1-promoter reporter in SK-MEL-5 – cell-based, luciferase, dry powder, set 9, MITF inhibitor project, dose response (AID 651588); format: functional
# [38] = viability loss in MITF-independent A375 cells – cell-based, CellTiter-Glo luminescence, dry powder, set 7, counter-screen for MITF inhibitor project, dose response (AID 624490); format: functional; conditions: A-375
smiles,measurement,setting,value
CC(=O)c1cc(NC(=O)c2cccc(C(F)(F)F)c2)c(=O)oc1C,AC50,[1],< 9 µM (active)
same,AC50,Paired box protein Pax-8,15.8 µM (active)
C[C@H](CO)N1C[C@H](C)[C@H](CN(C)C(=O)Nc2ccc(F)cc2)OCCCC[C@H](C)Oc2ccc(NC(=O)Nc3ccccc3)cc2C1=O,AC50,[2],37 µM (active)
same,AC50,[3],6.77 µM (active)
same,AC50,[4],44.4 µM (active)
same,AC50,[5],40.6 µM (active)
same,AC50,[6],35.2 µM (active)
CC(C)c1ccc2cc3c(NC(=O)c4ccco4)nn(C)c3nc2c1,AC50,[7],91.9 µM (active)
C=CC(=O)N1C/C(=C/c2ccc(F)cc2)C(=O)/C(=C\c2ccc(F)cc2)C1,CC50,[8],0.57 µM (active)
same,IC50,[9],3.71 µM (active)
same,AC50,[10],1.4 µM (active)
same,AC50,Paired box protein Pax-8,2.36 µM (active)
O=C(Nc1nc(-c2ccc(S(=O)(=O)N3CCOCC3)cc2)cs1)C1CCCCC1,IC50,Fatty acid synthase,> 80 µM (inactive)
CCOc1ccc(NC(=O)CC2SC(=O)N(c3ccccc3)C2=O)cc1 (stereo not drawn),IC50,[11],5.73 µM (active)
CN(C)c1ccc(/C=C/C=C/c2sc3ccccc3[n+]2C)cc1.[O-][Cl+3]([O-])([O-])[O-],EC50,BJ [12],4.81 µM (active)
same,EC50,BJ [13],29.2 µM (active)
same,EC50,[14],> 150 µM (inactive)
same,IC50,Nonstructural protein 1,15 µM (active)
same,CC50,[15],64 µM (active)
same,EC50,[16],0.194 µM (active)
same,IC50,[17],62.6 µM (active)
same,EC50,BJ [18],2.83 µM (inconclusive)
same,EC50,[19],4.85 µM (active)
same,AC50,[20],15.8 µM (active)
same,IC50,[21],41.6 µM (inactive)
O=C(Nc1cc(N2CCCCCC2)ncn1)c1ccccc1,IC50,Protein Wnt-3a,> 21.8 µM (inactive)
CO[C@@H]1CN(C)C(=O)c2ccc(NC(=O)c3ccc(-c4ccccc4)cc3)cc2OC[C@H](C)NC[C@H]1C,AC50,[22],11.3 µM (active)
same,AC50,[23],14 µM (active)
same,AC50,[24],13.6 µM (active)
COc1cc(NC(=O)c2ccc3nc(C)sc3c2)ccn1,CC50,[25],> 300 µM (inactive)
O=C(NC1=C(Cl)C(=O)c2ccccc2C1=O)c1ccccc1,AC50,[26],13.5 µM (active)
same,AC50,[27],0.913 µM (active)
same,AC50,[28],3.94 µM (active)
same,AC50,[29],45.9 µM (active)
same,AC50,[30],0.459 µM (active)
same,AC50,[31],9.85 µM (active)
same,AC50,[32],7.33 µM (active)
same,AC50,[33],28.7 µM (active)
same,AC50,[34],7.33 µM (active)
same,AC50,[35],16.5 µM (active)
same,AC50,[36],22.8 µM (active)
same,AC50,[37],1.95 µM (active)
same,AC50,[38],23.1 µM (active)
